The source of these data is patent US6821983B2, “5-(9-acridinylamino)-toluidine compounds” (Academia Sinica, priority 2003, dated 2004).

One data set deals with human tumor cell lines. Briefly: Inhibition of human tumor cell growth in culture (XTT-tetrazolium cytotoxicity assay, 72 h). As to conditions: five human tumor cell lines, 72 h incubation; for IC50 values compared with tested known 9-anilinoacridine antitumor compounds: for at least one cell line. The format is cell-based. Here is the method: (§1) Cytotoxicity Assays. The effects of the compounds on cell growth were determined in all human tumor cells (i.e. colon HT-29, nasopharyngeal carcinoma HONE-1 and BM-1, hepatoma Hepa-G2, breast carcinoma MX-1, gastric carcinoma TSGH, brain tumor DBTRG, oral carcinoma KB, breast carcinoma MCF-7 and MX-1, and T-cell acute lymphocytic leukemia CCRF-CEM), in a 72 h incubation, by XTT-tetrazolium assay, as described by Scudiero et al. (Cancer Res. 1988, 48, 4827-4833). After the addition of phenazine methosulfate-XTT solution at 37° C. for 6 h, absorbance at 450 and 630 nm was detected on a microplate reader (EL 340; Bio-Tek Instruments Inc., Winooski, Vt.). Six to seven concentrations of each compound were used. The IC50 and dose-effect relationships of the compounds for antitumor activity were calculated by a median-effect plot (Chou et al. Adv. Enzyme Regul. 1984, 22, 27-55) using a computer program on an IBM-PC workstation (Chou et al. Dose-Effect Analysis with Microcomputers: Quantitation of ED50, LD50, Synergism, Antagonism, Low-Dose Risk, Receptor-Ligands Binding and Enzyme Kinetics; Biosoft: Cambridge, U.K., 1987).

Data set [1] has as its system CCRF-CEM human lymphoblastic leukemic cells and its drug-resistant sublines. The experiment in a line: Growth inhibition of CCRF-CEM cells and drug-resistant sublines (XTT-tetrazolium assay, 72 h). It is filed as cell-based. The following applies: for IC50 values compared with tested known 9-anilinoacridine compounds: CCRF-CEM and drug-resistant sublines, 72 h, as the trihydrochloride salt or free amine compounds; for cross-resistance with vinblastine or taxol: CCRF-CEM drug-resistant sublines. Here is the method: as §1, with “in CCRF-CEM” for “in all”, “human lymphoblastic leukemic” for “human tumor”, “cells” for “cells (i.e. colon HT-29, nasopharyngeal carcinoma HONE-1”, “and its drug-resistant sublines” for “and BM-1, hepatoma Hepa-G2, breast carcinoma MX-1, gastric carcinoma TSGH, brain tumor DBTRG, oral carcinoma KB, breast carcinoma MCF-7 and MX-1, and T-cell acute lymphocytic leukemia CCRF-CEM),”

Data set [2] concerns human breast tumor MX-1 xenograft. Briefly: Chemotherapeutic efficacy in nude mice bearing human breast tumor MX-1 xenograft. The following applies: i.v., dosages of 10 mg/Kg or higher. It is filed as in vivo. Here is the method: In vivo assay. Athymic nude mice bearing the nu/nu gene were used for human breast tumor MX-1 xenograft. Outbred Swiss-background mice were obtained from Charies River Breeding Laboratories. Male mice 8 weeks old or older weighing 22 g or more were used for most experiments. Drug was administrated via the tail vein by i.v. injection. Tumor volumes were assessed by measuring length x width x height (or width) by using caliper. Vehicle used was 20 μl DMSO in 180 μl saline. All animal studies were conducted in accordance with the guidelines of the National Institutes of Health Guide for the Care and Use of Animals and the protocol approved by the Memorial Sloan-Kettering Cancer Center's Institutional Animal Care and Use Committee.

Counter-ions that a name gives are not always drawn.

Regarding `Cc1ccc(Nc2c3cccc(C)c3nc3c(C(=O)NCCN(C)C)cccc23)cc1N` (as salt: HCl) [Compound 3, 5-[9-(4-dimethylaminoethylcarboxamido-5-methyl)acridinylamino)-p-toluidine hydrochloride], the melting point was in the range of 245 to 246 °C.

In the case of `Cc1cc(N)cc(Nc2c3ccccc3nc3ccccc23)c1` (as salt: HCl) [Compound 10, 5-(9-acridinylamino)-m-toluidine], the melting point was > 280 °C (dec.).

As for `Cc1cc(N)cc(Nc2c3cccc(C)c3nc3c(C(=O)NCCN(C)C)cccc23)c1` [Compound 1, 5-[9-(4-dimethylaminoethylcarboxamido-5-methyl)acridinylamino]-m-toluidine hydrochloride], the “IC50 values compared with tested known 9-anilinoacridine antitumor compounds” value in the data set with human tumor cell lines is listed as “lower than those of tested known 9-anilinoacridine antitumor compounds”. Moreover, in data set [1], the “IC50 values compared with tested known 9-anilinoacridine compounds” value is recorded as “lower than tested known 9-anilinoacridine compounds” and the “cross-resistance with vinblastine or taxol” value was “not cross-resistant”. Besides, in data set [2], the reducing tumor volume entry is given as “about 80%” and the “toxicity to the host” value is “very low toxicity”.

As for `Cc1ccc(N)cc1Nc1c2cccc(C)c2nc2c(C(=O)NCCN(C)C)cccc12` [Compound 2, 3-[9-(4-dimethylaminoethylcarboxamido-5-methyl)acridinylamino)-p-toluidine hydrochloride], in the data set with human tumor cell lines, the “largest difference in IC50 versus one of the tested known compounds” value was 18 fold and the “IC50 values compared with tested known 9-anilinoacridine antitumor compounds” value is “lower than those of tested known 9-anilinoacridine antitumor compounds”. Further, in data set [1], the “IC50 values compared with tested known 9-anilinoacridine compounds” value is “lower than tested known 9-anilinoacridine compounds” and the “cross-resistance with vinblastine or taxol” value is “not cross-resistant”. Moreover, in data set [2], the reducing tumor volume result was “about 80%” and the “toxicity to the host” value is recorded as “very low toxicity”.

For the compound `Cc1ccc(Nc2c3cccc(C)c3nc3c(C(=O)NCCN(C)C)cccc23)cc1N` [Compound 3, 5-[9-(4-dimethylaminoethylcarboxamido-5-methyl)acridinylamino)-p-toluidine hydrochloride], the “IC50 values compared with tested known 9-anilinoacridine antitumor compounds” value in the data set on human tumor cell lines is “lower than those of tested known 9-anilinoacridine antitumor compounds”.

`CCOC(=O)Nc1cc(Nc2c3cccc(C)c3nc3c(C(=O)NCCN(C)C)cccc23)ccc1C` [Compound 6]: the melting point was in the range of 131 to 132 °C. In the data set on human tumor cell lines, the “IC50 values compared with tested known 9-anilinoacridine antitumor compounds” value is listed as “lower than those of tested known 9-anilinoacridine antitumor compounds”.

For the compound “{3-[4-(2-dimethylamino ethylcarbamoyl)-5-methyl-acridin-9-ylamino]-2-methyl-phenyl}-carbamic acid ethyl ester [Compound 5]”, the “IC50 values compared with tested known 9-anilinoacridine antitumor compounds” value with human tumor cell lines is reported as “lower than those of tested known 9-anilinoacridine antitumor compounds”.
